The values that follow come from ChEMBL document CHEMBL5465560, “Selectivity Literature for EUbOPEN Chemogenomic Library” (2024).

Assay [1] addresses Mitogen-activated protein kinase 8 (Homo sapiens, UniProt P45983). Briefly: Selectivity interaction (KinomeScan (DiscoverX)) EUB0001079a MAPK8. Conditions: at 1 µM.
In assay [2] the target is T1, Casein kinase I isoform alpha-like (Homo sapiens) (UniProt Q8N752).
T1 sequence (whole entry): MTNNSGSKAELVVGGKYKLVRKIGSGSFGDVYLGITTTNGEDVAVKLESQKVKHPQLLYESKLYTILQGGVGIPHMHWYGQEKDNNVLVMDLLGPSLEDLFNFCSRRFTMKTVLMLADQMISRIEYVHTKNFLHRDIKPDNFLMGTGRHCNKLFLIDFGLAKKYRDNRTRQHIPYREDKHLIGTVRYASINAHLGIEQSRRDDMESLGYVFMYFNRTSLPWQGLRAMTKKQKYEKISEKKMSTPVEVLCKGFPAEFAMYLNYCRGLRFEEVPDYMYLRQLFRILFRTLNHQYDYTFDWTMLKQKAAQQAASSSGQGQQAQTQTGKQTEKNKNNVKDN
The assay can be described thus: Selectivity interaction (KinomeScan (DiscoverX)) EUB0000045b CSNK1A1L.

The target of assay [3] is T2, NUAK family SNF1-like kinase 2 (Homo sapiens) (UniProt Q9H093).
T2 sequence (whole entry): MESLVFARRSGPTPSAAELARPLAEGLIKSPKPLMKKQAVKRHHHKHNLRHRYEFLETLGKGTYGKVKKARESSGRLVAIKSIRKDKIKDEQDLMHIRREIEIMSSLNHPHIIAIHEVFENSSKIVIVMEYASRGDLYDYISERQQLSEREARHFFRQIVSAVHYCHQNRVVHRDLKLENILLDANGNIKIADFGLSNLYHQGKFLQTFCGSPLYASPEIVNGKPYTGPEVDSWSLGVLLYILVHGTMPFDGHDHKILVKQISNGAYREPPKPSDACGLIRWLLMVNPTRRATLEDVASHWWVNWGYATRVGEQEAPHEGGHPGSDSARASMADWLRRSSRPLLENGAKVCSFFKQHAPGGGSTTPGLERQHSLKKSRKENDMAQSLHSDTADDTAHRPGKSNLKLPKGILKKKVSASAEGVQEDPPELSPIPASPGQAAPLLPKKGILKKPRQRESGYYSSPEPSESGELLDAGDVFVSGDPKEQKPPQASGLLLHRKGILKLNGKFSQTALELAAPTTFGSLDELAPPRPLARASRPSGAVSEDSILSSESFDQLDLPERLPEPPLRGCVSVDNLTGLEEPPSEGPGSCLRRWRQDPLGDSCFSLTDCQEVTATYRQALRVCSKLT
The assay can be described thus: Selectivity interaction (KinomeScan (DiscoverX)) EUB0000607a NUAK2. Conditions: at 10 µM.

The target in assay [4] is T3, Tyrosine-protein kinase JAK3 (Homo sapiens) (UniProt P52333).
T3 sequence (whole entry): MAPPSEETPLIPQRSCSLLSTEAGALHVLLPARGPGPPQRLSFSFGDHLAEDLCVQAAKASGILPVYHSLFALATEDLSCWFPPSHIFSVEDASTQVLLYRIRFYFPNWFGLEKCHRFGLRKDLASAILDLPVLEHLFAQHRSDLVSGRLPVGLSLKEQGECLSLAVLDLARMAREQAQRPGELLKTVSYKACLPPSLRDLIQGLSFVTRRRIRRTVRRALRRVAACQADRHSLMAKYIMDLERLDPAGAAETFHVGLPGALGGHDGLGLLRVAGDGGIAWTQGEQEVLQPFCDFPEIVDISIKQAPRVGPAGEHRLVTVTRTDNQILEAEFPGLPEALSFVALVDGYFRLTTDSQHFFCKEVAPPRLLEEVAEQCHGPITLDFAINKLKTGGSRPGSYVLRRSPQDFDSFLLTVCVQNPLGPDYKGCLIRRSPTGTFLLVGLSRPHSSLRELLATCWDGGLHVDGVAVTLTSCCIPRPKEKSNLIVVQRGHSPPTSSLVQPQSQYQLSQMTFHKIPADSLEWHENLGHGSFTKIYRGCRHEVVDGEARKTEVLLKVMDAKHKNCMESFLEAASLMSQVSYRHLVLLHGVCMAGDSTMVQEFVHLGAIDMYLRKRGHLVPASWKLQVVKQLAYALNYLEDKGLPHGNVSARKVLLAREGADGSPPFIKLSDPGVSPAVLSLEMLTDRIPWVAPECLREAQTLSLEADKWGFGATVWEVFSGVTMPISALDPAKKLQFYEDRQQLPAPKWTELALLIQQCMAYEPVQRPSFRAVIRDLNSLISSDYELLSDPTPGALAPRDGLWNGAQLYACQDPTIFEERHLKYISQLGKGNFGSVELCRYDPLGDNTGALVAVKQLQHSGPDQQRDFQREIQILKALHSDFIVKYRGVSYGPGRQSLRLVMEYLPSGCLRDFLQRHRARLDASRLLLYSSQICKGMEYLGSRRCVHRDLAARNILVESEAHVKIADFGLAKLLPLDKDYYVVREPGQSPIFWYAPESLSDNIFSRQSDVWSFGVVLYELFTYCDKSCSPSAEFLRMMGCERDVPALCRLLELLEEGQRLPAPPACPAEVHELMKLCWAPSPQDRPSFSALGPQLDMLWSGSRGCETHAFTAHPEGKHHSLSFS
The assay can be described thus: Selectivity interaction (KinomeScan (DiscoverX)) EUB0000595a JAK3. Conditions: at 10 µM.

The target of assay [5] is T4, Phosphatidylinositol 5-phosphate 4-kinase type-2 beta (Homo sapiens) (UniProt P78356).
T4 sequence (whole entry): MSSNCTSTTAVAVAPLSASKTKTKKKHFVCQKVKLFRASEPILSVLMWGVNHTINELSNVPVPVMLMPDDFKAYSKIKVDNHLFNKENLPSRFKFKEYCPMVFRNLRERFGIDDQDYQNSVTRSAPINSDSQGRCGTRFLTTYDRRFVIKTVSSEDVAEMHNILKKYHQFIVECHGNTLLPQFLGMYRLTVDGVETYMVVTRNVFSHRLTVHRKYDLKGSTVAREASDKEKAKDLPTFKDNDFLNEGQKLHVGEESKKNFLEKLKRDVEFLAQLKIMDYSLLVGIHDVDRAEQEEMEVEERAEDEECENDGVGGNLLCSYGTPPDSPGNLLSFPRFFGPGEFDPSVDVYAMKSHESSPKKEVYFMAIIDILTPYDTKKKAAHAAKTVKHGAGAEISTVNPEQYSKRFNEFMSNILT
Briefly: Selectivity interaction (ActivX KiNativ screen (ex vivo kinase selectivity in human PBMCs)) EUB0001619a PIP4K2B. Type of assay: cell-based. Conditions: PBMC, at 1 µM.

SMILES strings stand for the structures.

Chain of Mitogen-activated protein kinase 8 (P45983 whole entry, canonical isoform): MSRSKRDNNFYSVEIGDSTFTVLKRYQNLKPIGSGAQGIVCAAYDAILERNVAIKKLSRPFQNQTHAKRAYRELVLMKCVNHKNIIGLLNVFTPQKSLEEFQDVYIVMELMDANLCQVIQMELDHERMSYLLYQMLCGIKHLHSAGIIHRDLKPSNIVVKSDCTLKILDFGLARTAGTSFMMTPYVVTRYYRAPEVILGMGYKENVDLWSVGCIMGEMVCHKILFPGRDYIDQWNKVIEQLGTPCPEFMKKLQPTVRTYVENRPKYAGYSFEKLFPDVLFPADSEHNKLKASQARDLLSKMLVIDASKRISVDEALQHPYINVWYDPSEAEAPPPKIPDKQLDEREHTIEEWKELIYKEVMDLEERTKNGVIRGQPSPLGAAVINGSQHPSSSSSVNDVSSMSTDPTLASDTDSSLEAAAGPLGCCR

In assay [1], `Nc1cnc(N2CCc3cc(S(=O)(=O)Nc4c(F)cc(Cl)cc4F)cc(N4CCCC4=O)c32)nc1` [TP-020n] had a % of control of 78%.
Regarding `C=CC(=O)Nc1cc(-n2c(=O)ccc3cnc4ccc(-c5ccc(NS(C)(=O)=O)cc5)cc4c32)ccc1C`, the % of control in assay [2] (at 1 µM) and in assay [2] (at 10 µM) was 100% in each case.
As for `CNC(=O)Nc1ccc(-c2nc(N3CC4CCC(C3)O4)c3cnn(C4CCC5(CC4)OCCO5)c3n2)cc1`, the % of control in assay [3] amounted to 100%.
Turning to `COCC(=O)NC/C=C/c1ccc2ncnc(Nc3ccc(Oc4ccc(C)nc4)c(C)c3)c2c1` [CP-724714], in assay [4], the % of control is 100%.
`N#Cc1cccc(-c2c[nH]c3ncnc(N4CCOCC4)c23)c1` registered a % of inhibition in assay [5] of 15%.
